# Read-outs that look alike come from different tables or passages of the source.
# Legend:
# [1] = biological target: PfCDPK1 T145Q (Plasmodium falciparum, UniProt P62344, T145Q); test: Rh-ParM ADP sensor assay, gatekeeper mutant T145Q; conditions: Ki, absence of MTIP
# [2] = biological target: T1, PfCDPK1 (Plasmodium falciparum, UniProt P62344); test: Radiometric assay, incorporation of 33P into MTIP; conditions: for IC50 ratio (ATP depletion/radiometric assay): Kinase-Glo Plus IC50 / radiometric IC50; for IC50: read-out: IC50 Radiometric assay, ATP and MTIP at their respective Km values
# T1 sequence (P62344 whole entry): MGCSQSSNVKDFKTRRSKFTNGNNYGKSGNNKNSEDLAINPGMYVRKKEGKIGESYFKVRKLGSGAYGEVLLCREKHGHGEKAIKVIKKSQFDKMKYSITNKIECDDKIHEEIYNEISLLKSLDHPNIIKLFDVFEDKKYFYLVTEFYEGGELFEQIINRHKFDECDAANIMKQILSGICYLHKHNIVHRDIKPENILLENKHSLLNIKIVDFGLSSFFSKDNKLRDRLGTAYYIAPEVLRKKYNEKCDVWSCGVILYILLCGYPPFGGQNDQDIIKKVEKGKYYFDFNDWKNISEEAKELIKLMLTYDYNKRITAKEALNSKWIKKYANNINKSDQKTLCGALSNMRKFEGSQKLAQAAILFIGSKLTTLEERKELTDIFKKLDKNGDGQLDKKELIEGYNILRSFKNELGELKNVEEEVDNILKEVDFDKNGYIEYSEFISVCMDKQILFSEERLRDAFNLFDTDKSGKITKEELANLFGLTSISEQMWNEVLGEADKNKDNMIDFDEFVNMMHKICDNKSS
# [3] = biological target: T1, PfCDPK1; test: Kinase-Glo Plus ATP depletion assay; conditions: read-out: IC50 ATP depletion, ATP and MTIP at their respective Km values
# [4] = biological target: T1, PfCDPK1; conditions: absence of MTIP; for IC50: mean (SD), n = 2
# [5] = biological target: PbCDPK1 (Plasmodium berghei, UniProt A0A509AHB6); test: Rh-ParM ADP sensor IC50 assay, PbCDPK1; conditions: for IC50: read-out: IC50 PbCDPK1, Rh-ParM, absence of MTIP, mean (SD)
# PbCDPK1, sequence (A0A509AHB6 whole entry): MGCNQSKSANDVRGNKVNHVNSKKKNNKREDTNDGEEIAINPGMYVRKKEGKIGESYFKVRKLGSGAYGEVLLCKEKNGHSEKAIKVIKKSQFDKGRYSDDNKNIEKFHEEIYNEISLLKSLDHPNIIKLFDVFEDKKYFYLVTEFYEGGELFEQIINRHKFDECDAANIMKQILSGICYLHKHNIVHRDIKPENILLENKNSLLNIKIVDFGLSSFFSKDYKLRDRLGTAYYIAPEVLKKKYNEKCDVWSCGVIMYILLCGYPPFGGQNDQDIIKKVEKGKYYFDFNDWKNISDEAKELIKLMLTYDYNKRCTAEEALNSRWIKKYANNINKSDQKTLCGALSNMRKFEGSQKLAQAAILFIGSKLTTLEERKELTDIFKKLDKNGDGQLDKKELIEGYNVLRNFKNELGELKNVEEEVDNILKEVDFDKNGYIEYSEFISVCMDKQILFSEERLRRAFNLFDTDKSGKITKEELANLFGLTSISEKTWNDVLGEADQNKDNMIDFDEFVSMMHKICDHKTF
# [6] = biological target: PvCDPK1 (Plasmodium vivax, UniProt A5KBU9); test: Rh-ParM ADP sensor IC50 assay, PvCDPK1; conditions: for IC50: read-out: IC50 PvCDPK1, Rh-ParM, absence of MTIP, mean (SD)
# PvCDPK1, sequence (A5KBU9 entry or part of it): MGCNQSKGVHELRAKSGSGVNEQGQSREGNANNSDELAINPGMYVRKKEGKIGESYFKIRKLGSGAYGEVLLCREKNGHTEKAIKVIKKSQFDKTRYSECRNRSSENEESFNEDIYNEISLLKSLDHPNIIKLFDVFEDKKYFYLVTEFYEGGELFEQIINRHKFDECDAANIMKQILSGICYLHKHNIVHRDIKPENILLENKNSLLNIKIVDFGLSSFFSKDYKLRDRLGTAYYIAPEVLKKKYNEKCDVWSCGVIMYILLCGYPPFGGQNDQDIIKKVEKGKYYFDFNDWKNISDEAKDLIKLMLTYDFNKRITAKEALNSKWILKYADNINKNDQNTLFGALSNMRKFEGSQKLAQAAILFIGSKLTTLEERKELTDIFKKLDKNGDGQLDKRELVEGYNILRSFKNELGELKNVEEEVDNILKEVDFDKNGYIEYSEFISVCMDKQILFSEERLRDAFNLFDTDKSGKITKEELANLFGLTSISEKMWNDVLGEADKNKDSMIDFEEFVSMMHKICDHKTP
# [7] = biological target: T1, PfCDPK1; test: Thermal shift assay; assay type: binding; design: 50 nM full-length recombinant PfCDPK1 and 8 μM MTIP in assay buffer 1; GST (from vector pGEX6P1) (N, cleaved yes); made in house; host or cells: Escherichia coli BL21 Gold; conditions: 10 μM compound, relative to DMSO controls
# Description: Purified recombinant PfCDPK1 was diluted to 1 μM in 10 mM HEPES buffer (pH 7.5) containing 150 mM NaCl, 1 mM Ca^2+, and 1/1,000 SYPRO orange dye (Invitrogen). Test compounds were prediluted to 400 μM in 40% (vol/vol) DMSO in water, and 1 μl of diluted compound was added to 39 μl of enzyme/dye mix in white 96-well quantitative PCR plates (Thermo Scientific) to give a final compound concentration of 10 μM. Reference thermal melting temperatures (Tms) were obtained in parallel by the addition of 1 μl of 40% (vol/vol) DMSO to 39 μl of diluted PfCDPK1. The plates were sealed with transparent adhesive covers (Bio-Rad) and subjected to a temperature gradient from […] at a rate of 1 K/min using a quantitative PCR machine (MX3005P; Stratagene). Fluorescence data were acquired at 1-min intervals using the 6-carboxyfluorescein (FAM)/5-carboxy-X-rhodamine (ROX) filter set (λex = 492 nm; λem = 610 nm), and the raw data were exported to Excel (Microsoft) for analysis. Data were processed to identify the fluorescence maxima and minima, and the midpoints of melting curves were determined by fitting to the Boltzmann equation using XL-fit software (IDBS). Results were expressed as ΔTm values relative to DMSO controls where ΔTm = Tm in the presence of inhibitor − Tm of the DMSO controls.
# [8] = design: method as in PMID 24689770; conditions: cited from earlier work
# [9] = read-out: IC50 With 30 μM ATP, 30 μM ATP, Rh-ParM ADP detection
# [10] = read-out: IC50 With 1 mM ATP, 1 mM ATP, Rh-ParM ADP detection
# [11] = read-out: IC50 PfCDPK1, Rh-ParM, ATP at Km
# PfCDPK1 T145Q, sequence (P62344 whole entry T145Q): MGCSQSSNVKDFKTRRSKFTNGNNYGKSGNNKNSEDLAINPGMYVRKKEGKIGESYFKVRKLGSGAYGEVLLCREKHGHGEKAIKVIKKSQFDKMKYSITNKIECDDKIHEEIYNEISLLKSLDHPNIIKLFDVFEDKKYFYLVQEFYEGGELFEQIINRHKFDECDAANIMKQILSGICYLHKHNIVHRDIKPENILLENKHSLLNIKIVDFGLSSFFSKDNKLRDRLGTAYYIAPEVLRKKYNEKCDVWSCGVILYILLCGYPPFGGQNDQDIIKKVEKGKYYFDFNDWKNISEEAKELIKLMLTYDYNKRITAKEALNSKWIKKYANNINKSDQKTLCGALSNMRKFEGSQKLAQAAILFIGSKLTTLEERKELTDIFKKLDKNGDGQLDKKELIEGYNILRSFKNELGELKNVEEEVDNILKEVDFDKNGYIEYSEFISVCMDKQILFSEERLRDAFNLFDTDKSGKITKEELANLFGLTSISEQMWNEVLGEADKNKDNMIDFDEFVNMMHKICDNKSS
smiles,measurement,setting,value
CN[C@@H]1C[C@H]2O[C@@](C)([C@@H]1OC)n1c3ccccc3c3c4c(c5c6ccccc6n2c5c31)C(=O)NC4 [Staurosporine],difference in potency between wild-type enzyme and T145Q,[1],no substantial differences
CC(=O)Nc1cccc(-c2cnn3ccc(NCCc4cccnc4)nc23)c1 [Compound 14],IC50 ratio (ATP depletion/radiometric assay),[2],3.5
same,IC50,[2],15 nM
same,IC50,[3],52 nM
same,IC50 ratio (IC50 with 1 mM ATP/IC50 with 30 μM ATP),[4]; Rh-ParM,27
same,IC50,[4]; [9],28 nM
same,IC50,[4]; [10],745 nM
Cc1c(C(=O)N(C)C2CCCCC2)noc1COc1ccc(-n2cncn2)cc1 [Compound 21],IC50 ratio (IC50 with 1 mM ATP/IC50 with 30 μM ATP),[4]; Rh-ParM,41
same,IC50,[4]; [9],143 nM
same,IC50,[4]; [10],5930 nM
CCc1ccccc1NC(=O)CSc1nccn(-c2ccc(OC)cc2)c1=O [Compound 22],IC50 ratio (IC50 with 1 mM ATP/IC50 with 30 μM ATP),[4]; Rh-ParM,>3
same,IC50,[4]; [9],34200 nM
same,IC50,[4]; [10],> 100000 nM
O=C(NCc1ccc(N2CCCC2)cc1)c1ccc(-n2cnc3cccnc32)cc1 [Compound 16],IC50 ratio (IC50 with 1 mM ATP/IC50 with 30 μM ATP),[4]; Rh-ParM,39
same,IC50,[4]; [9],77 nM
same,IC50,[4]; [10],2970 nM
CC(=O)Nc1cccc(-c2cnc3ccc(NCCc4cccnc4)nn23)c1 [Compound 11],IC50 ratio (ATP depletion/radiometric assay),[2],3.0
same,IC50,[2],22 nM
same,IC50,[3],65 nM
same,IC50 ratio (IC50 with 1 mM ATP/IC50 with 30 μM ATP),[4]; Rh-ParM,28
same,IC50,[4]; [9],49 nM
same,IC50,[4]; [10],1380 nM
CN(C)C1CCN(c2ccc3ncc(-c4cnc(Nc5ncccc5F)nc4)n3n2)C1 (stereo not shown) [Compound 45],IC50,[4]; [11],19 nM
same,IC50 ratio PbCDPK1/PfCDPK1,[5],3.0
same,IC50,"[5]; ATP at Km, n = 2",58 nM
same,IC50 ratio PvCDPK1/PfCDPK1,[6],1.0
same,IC50,"[6]; ATP at Km, n = 2",19 nM
c1nc(NCC2CC2)ncc1-c1cnc2ccc(NC3CCNCC3)nn12 [Compound 40],IC50,[4]; [11],52 nM
same,IC50 ratio PbCDPK1/PfCDPK1,[5],4.8
same,IC50,"[5]; ATP at Km, n = 2",249 nM
same,IC50 ratio PvCDPK1/PfCDPK1,[6],0.9
same,IC50,"[6]; ATP at Km, n = 2",48 nM
COc1ccc(NC(=O)CSc2nccn(-c3ccc(OC)cc3)c2=O)cc1 [Compound 23],IC50 ratio (IC50 with 1 mM ATP/IC50 with 30 μM ATP),[4]; Rh-ParM,>3
same,IC50,[4]; [9],39800 nM
same,IC50,[4]; [10],> 100000 nM
CN1CCC(Nc2ccc3ncc(-c4ccc(Nc5ncc(Cl)cc5F)cc4)n3n2)CC1 [Compound 6],IC50,[5]; n = 3,< 10 nM
same,IC50,[6]; n = 3,< 10 nM
same,ΔTm PfCDPK1,[7],22 K
same,mlogD,[8],3.7
CC(C)CCNc1cc(-c2cnc3ccc(NC4CCN(C)CC4)nn23)ccn1 [Compound 27],IC50,[4]; [11],138 nM
same,IC50 ratio PbCDPK1/PfCDPK1,[5],3.5
same,IC50,"[5]; ATP at Km, n = 2",479 nM
same,IC50 ratio PvCDPK1/PfCDPK1,[6],0.5
same,IC50,"[6]; ATP at Km, n = 2",68 nM
Fc1cccnc1Nc1ccc(-c2cnc3ccc(NC4CCC(N5CCCC5)CC4)nn23)cc1 (stereo not shown) [Compound 5],mlogD,[8],3.3
N#Cc1cccc(-c2cnn3ccc(NCCc4cccnc4)nc23)c1 [Compound 13],IC50 ratio (IC50 with 1 mM ATP/IC50 with 30 μM ATP),[4]; Rh-ParM,17
same,IC50,[4]; [9],212 nM
same,IC50,[4]; [10],3580 nM
CC(C)CCNc1ncc(-c2cnn3ccc(NC4CCN(C)C4)nc23)cn1 (stereo not shown) [Compound 42],IC50,[4]; [11],109 nM
same,IC50 ratio PbCDPK1/PfCDPK1,[5],3.2
same,IC50,"[5]; ATP at Km, n = 2",350 nM
same,IC50 ratio PvCDPK1/PfCDPK1,[6],0.9
same,IC50,"[6]; ATP at Km, n = 2",99 nM
CN1CCC(Nc2ccc3ncc(-c4ccc(Nc5ncccc5F)cc4)n3n2)CC1 [Compound 3],IC50,[6]; n = 3,< 10 nM
same,mlogD,[8],3.2
CC(C)Oc1ccc(CNC(=O)c2ccc(-n3cnc4cccnc43)cc2)cc1 [Compound 18],IC50 ratio (IC50 with 1 mM ATP/IC50 with 30 μM ATP),[4]; Rh-ParM,53
same,IC50,[4]; [9],86 nM
same,IC50,[4]; [10],4530 nM
O=C(NCc1ccccc1)c1ccc(-c2cnc3ccc(NCCc4cccnc4)nn23)cc1 [Compound 47],IC50 ratio (ATP depletion/radiometric assay),[2],3.9
same,IC50,[2],7 nM
same,IC50,[3],27 nM
